The values below come from patent US10870638B2, “Pyridazinone compound or its salt, and herbicide containing it” (ISHIHARA SANGYO KAISHA, LTD., priority 2016, dated 2020).

What all share (format): in vivo
What all share (conditions): active ingredient amount 31 g/ha, 14th day after application

Assay [1] concerns barnyardgrass (Echinochloa crus-qalli L.). The experiment in a line: Test Example 1: foliar treatment, growth inhibition rate on 14th day. A digest of the protocol:
(§1)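 Visual 0–100% inhibition scoring (100 = complete kill) at 14 days after foliar treatment of soil-grown seedlings at species-specific leaf stages, with the compound sprayed as a wettable powder or emulsifiable concentrate dilution.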

Assay [2] has as its system corn (Zea mays L.). The assay is described as above. A digest of the protocol: as §1
Assay [3] relates to crabgrass (Digitaria sanquinalis L.). Described as above. A digest of the protocol: as §1
Assay [4] has as its system green foxtail (Setaria viridis L.). The assay is described as above. A digest of the protocol: (§2)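 Using a small sprayer, formulated compound in water (0.1 vol % surfactant, 1,000 L/ha) was applied to seedlings grown from seed in upland soil. Fourteen days on, growth state was observed and expressed as percent inhibition from 0 to 100.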
Assay [5] relates to italian ryegrass (Lolium multiflorum Lam.). The description is as above. A digest of the protocol:
as §1

Assay [6] deals with redroot pigweed (Amaranthus retroflexus L.). Described as above. The procedure, abridged: as §1
Assay [7] relates to rice (Oryza sativa L.). Described as above. A digest of the protocol: as §2
In assay [8] the test system is soybean (Glycine max Merr.). Described as above. The procedure, abridged: as §2
In assay [9] the test system is wheat (Triticum aestivum L.). Described as above. The procedure, abridged:
as §1

Assay [10] relates to wild oat (Avena fatua L.). The description is as above. The procedure, abridged:
as §2

The subject of assay [11] is barnyardgrass (Echinochloa crus-qalli L.). As to the kind of experiment: Test Example 2: soil application on the day after sowing, growth inhibition rate on 14th day. The procedure, abridged: (§3)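 Herbicidal effect is assessed on pot-grown plants after a soil spray applied the day after sowing at prescribed active ingredient rates. Scoring occurs visually at day 14 as growth inhibition (%).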

In assay [12] the test system is corn (Zea mays L.). Described as above. The procedure, abridged: as §3
For assay [13], the system named is crabgrass (Digitaris sanquinalis L.). The assay is described as above. The procedure, abridged: as §3
Assay [14] concerns green foxtail (Setaria viridis L.). The assay is described as above. A digest of the protocol:
as §3

Assay [15] has as its system prickly sida (Sida spinosa L.). The description is as above. The procedure, abridged: as §3
The subject of assay [16] is redroot pigweed (Amaranthus retroflexus L.). The assay is described as above. The procedure, abridged:
as §3

Assay [17] concerns rice (Oryza sativa L.). Described as above. A digest of the protocol:
as §3

Assay [18] concerns soybean (Glycine max Merr.). The description is as above. The procedure, abridged:
as §3

Assay [19] relates to velvetleaf (Abutilon theophrasti MEDIC.). Described as above. A digest of the protocol: as §3
The subject of assay [20] is wheat (Triticum aestivum L.). The assay is described as above. The procedure, abridged: as §3

Take `CCc1ccc(Oc2ncc(C(F)(F)F)cc2Cl)cc1-c1c(O)cnn(CC)c1=O` [1-173]: the “Growth inhibition rate (%) Barnyardgrass” value in assay [1] and in [11] was 100% throughout. The “Growth inhibition rate (%) Corn” value in assay [2] is 99%; in assay [12] it was 50%. Also, the “Growth inhibition rate (%) Crabgrass” value in [3] and in assay [13] was 100% throughout. Also, the “Growth inhibition rate (%) Green foxtail” value in [4] and in assay [14] was 100% throughout. Besides, the “Growth inhibition rate (%) Italian ryegrass” value in [5] was 95%. In addition, the “Growth inhibition rate (%) Redroot pigweed” value in assay [6] and in assay [16] was 0% throughout. Besides, the “Growth inhibition rate (%) Rice” value in assay [7] and in assay [17] was 60% in each case. Besides, the “Growth inhibition rate (%) Soybean” value in assay [8] and in [18] was 0% each time. The figures for the “Growth inhibition rate (%) Wheat” value in assay [9] and in assay [20] were 35% and 0%, respectively. Moreover, in assay [10], the “Growth inhibition rate (%) Wild oat” value was 100%. Also, the “Growth inhibition rate (%) Prickly sida” value in assay [15] came to 0%. Besides, the “Growth inhibition rate (%) Velvetleaf” value in [19] was determined as 0%.
On to `CCc1ccc(Oc2ncc(C(F)(F)F)cc2Cl)cc1-c1c(OC(C)=O)cnn(CC)c1=O` [1-174], for which the “Growth inhibition rate (%) Barnyardgrass” value in assay [1] and in [11] was 100% throughout. Besides, the “Growth inhibition rate (%) Corn” value in assay [2] is reported as 100%; in assay [12] it was 0%. The “Growth inhibition rate (%) Crabgrass” value in assay [3] and in [13] was 100% in each case. The “Growth inhibition rate (%) Green foxtail” value in assay [4] and in assay [14] was 100% in each case. Also, the “Growth inhibition rate (%) Italian ryegrass” value in assay [5] worked out at 93%. The “Growth inhibition rate (%) Redroot pigweed” value in [6] and in assay [16] was 0% throughout. The “Growth inhibition rate (%) Rice” value in assay [7] stood at 20%; in assay [17], 0%. Moreover, the “Growth inhibition rate (%) Soybean” value in assay [8] and in assay [18] was 0% throughout. Also, the results for the “Growth inhibition rate (%) Wheat” value in assay [9] and in [20] were 75% and 0%, respectively. Besides, the “Growth inhibition rate (%) Wild oat” value in [10] is given as 100%. Further, in assay [15], the “Growth inhibition rate (%) Prickly sida” value is on record as 0%. For the same molecule, the “Growth inhibition rate (%) Velvetleaf” value in assay [19] was 0%.
`Cc1ccc(Oc2ccc(C(F)(F)F)cn2)cc1-c1c(O)c(C)nn(C)c1=O` [Compound 2-3]: the entries for the “Growth inhibition rate (%) Barnyardgrass” value in assay [1] and in assay [11] were 85% and 50%, respectively. Also, the figures for the “Growth inhibition rate (%) Corn” value in assay [2] and in assay [12] were 10% and 0%, respectively. The “Growth inhibition rate (%) Crabgrass” value in assay [3] was 15%; in assay [13], 80%. Besides, the “Growth inhibition rate (%) Green foxtail” value in assay [4] is recorded as 85%; in [14] it was 98%. For the same molecule, the “Growth inhibition rate (%) Italian ryegrass” value in assay [5] was found to be 20%. The “Growth inhibition rate (%) Redroot pigweed” value in assay [6] and in assay [16] was 0% in each case. In addition, the “Growth inhibition rate (%) Rice” value in assay [7] was determined as 10%; in assay [17] it was 20%. The “Growth inhibition rate (%) Soybean” value stood at 10% in assay [8] and 0% in [18]. The “Growth inhibition rate (%) Wheat” value is 30% in [9] and 0% in assay [20]. The “Growth inhibition rate (%) Wild oat” value in [10] was 35%. Moreover, the “Growth inhibition rate (%) Prickly sida” value in assay [15] was found to be 0%. The “Growth inhibition rate (%) Velvetleaf” value in assay [19] is listed as 0%.
Consider `Cc1ccc(Oc2ncc(C(F)(F)F)cc2F)cc1-c1c(O)c(C)nn(C)c1=O` [Compound 2-5], for which the “Growth inhibition rate (%) Barnyardgrass” value in [1] and in assay [11] was 100% in each case. Further, the “Growth inhibition rate (%) Corn” value in [2] is recorded as 75%; in assay [12], 65%. Further, the figures for the “Growth inhibition rate (%) Crabgrass” value in assay [3] and in [13] were 99% and 100%, respectively. Besides, the “Growth inhibition rate (%) Green foxtail” value in [4] and in assay [14] was 100% each time. Besides, in [5], the “Growth inhibition rate (%) Italian ryegrass” value is given as 95%. Moreover, the results for the “Growth inhibition rate (%) Redroot pigweed” value in assay [6] and in assay [16] were 20% and 0%, respectively. Also, the “Growth inhibition rate (%) Rice” value is listed as 85% in [7] and 80% in [17]. Moreover, the “Growth inhibition rate (%) Soybean” value in assay [8] and in [18] was 0% each time. In addition, the results for the “Growth inhibition rate (%) Wheat” value in assay [9] and in [20] were 40% and 30%, respectively. For the same molecule, the “Growth inhibition rate (%) Wild oat” value in assay [10] is 95%. In addition, in [15], the “Growth inhibition rate (%) Prickly sida” value worked out at 0%. In [19], the “Growth inhibition rate (%) Velvetleaf” value turned out to be 0%.
On to `Cc1ccc(Oc2nc3ccc(Cl)cc3o2)cc1-c1c(O)c(C)nn(C)c1=O` [Compound 2-8], for which the “Growth inhibition rate (%) Barnyardgrass” value in assay [1] and in assay [11] was 100% in each case. Besides, the “Growth inhibition rate (%) Corn” value in [2] is on record as 10%; in [12], 0%. For the same molecule, the results for the “Growth inhibition rate (%) Crabgrass” value in assay [3] and in [13] were 100% and 95%, respectively. Also, the “Growth inhibition rate (%) Green foxtail” value in [4] is on record as 99%; in assay [14], 100%. Moreover, the “Growth inhibition rate (%) Italian ryegrass” value in assay [5] is 83%. For the same molecule, the “Growth inhibition rate (%) Redroot pigweed” value in assay [6] and in assay [16] was 0% throughout. Besides, the figures for the “Growth inhibition rate (%) Rice” value in [7] and in assay [17] were 15% and 20%, respectively. For the same molecule, the “Growth inhibition rate (%) Soybean” value in [8] and in assay [18] was 0% throughout. The “Growth inhibition rate (%) Wheat” value was 25% in assay [9] and 0% in [20]. The “Growth inhibition rate (%) Wild oat” value in [10] is reported as 65%. Besides, the “Growth inhibition rate (%) Prickly sida” value in assay [15] came out at 0%. For the same molecule, in [19], the “Growth inhibition rate (%) Velvetleaf” value stood at 0%.
As for `Cc1ccc(Oc2nc3ccc(Cl)cc3s2)cc1-c1c(O)c(C)nn(C)c1=O` [Compound 2-10], the results for the “Growth inhibition rate (%) Barnyardgrass” value in [1] and in [11] were 99% and 95%, respectively. For the same molecule, the “Growth inhibition rate (%) Corn” value in assay [2] is 0%; in assay [12] it was 30%. Further, the entries for the “Growth inhibition rate (%) Crabgrass” value in [3] and in assay [13] were 40% and 50%, respectively. For the same molecule, the “Growth inhibition rate (%) Green foxtail” value stood at 99% in assay [4] and 85% in [14]. Besides, the “Growth inhibition rate (%) Italian ryegrass” value in assay [5] was 10%. Besides, the “Growth inhibition rate (%) Redroot pigweed” value in [6] and in [16] was 0% in each case. The “Growth inhibition rate (%) Rice” value in [7] is reported as 0%; in [17] it was 40%. Besides, the “Growth inhibition rate (%) Soybean” value in assay [8] came to 30%; in [18], 0%. The “Growth inhibition rate (%) Wheat” value in [9] came out at 10%; in assay [20], 0%. In assay [10], the “Growth inhibition rate (%) Wild oat” value is 10%. Besides, the “Growth inhibition rate (%) Prickly sida” value in assay [15] was 0%. Besides, in assay [19], the “Growth inhibition rate (%) Velvetleaf” value came to 0%.
